The record followed here is a melting point compilation (Tetko et al.; mined from patent text by program, amines drawn as free bases though some values may be those of a salt).

For the compound `Cc1nc2ccc(-c3ccc(OCC4(N)COC4)cc3)nn2c1-c1cnc(N)c(C(F)(F)F)c1`, the melting point – broadly, the temperature of the solid-liquid transition – was 198 to 200 °C. Compound `CC(=Cc1ccccc1)CN1CCc2nc(N)sc2CC1` gave a melting point of 112 to 115 °C. Take `N#Cc1cc(C=Cc2ccc(N(c3ccccc3)c3ccccc3)cc2)c(C#N)cc1C=Cc1ccc(N(c2ccccc2)c2ccccc2)cc1`: the melting point was 260 °C. With `CCn1c(=O)n(OCc2ccccc2)c(=O)c2cc(F)c(N3CCCC3)cc21`, the melting point lay in the range of 174 to 176 °C. In turn, `N#CCCn1nc(-c2ccccc2)c(-c2ccccc2)c(C#N)c1=O` yielded a melting point of 160 to 161 °C. Compound `CC(C#N)=C1CCN(c2ccc(N3CC(COc4ccon4)OC3=O)cc2F)CC1` (stereo unspecified) gave a melting point of 137 to 138 °C. As for `CS(=O)(=O)N1CCC(NC(=O)OCc2ccccc2)CC1`, the figure is 149 to 153 °C; as for `CN1CCC(C2=Nc3ccccc3N(C)c3ccccc32)CC1`, 119 to 121 °C; as for `CCOC(=O)CNc1ncccc1NC(=O)c1ccccc1OC`, 111 to 112 °C. Turning to `CO/C=C(/C(=O)OC)c1csc(C(=O)c2ccccc2)c1`, the melting point lay in the range of 82 to 84 °C. Take `CSc1sc(C(N)=O)c2c1-c1oc(C)nc1CC2`: the melting point is > 300 °C. As to `CS(=O)(=O)CC(=O)NC(=O)N1CC1C#N` (stereo unspecified), the melting point lay within 126 to 128 °C. In the case of `CN1CCN(C2=Nc3ccccc3C(O)(c3ccccc3)C2(C)C)CC1` (stereo unspecified), the melting point is 268 to 269 °C. As for `COC(=O)c1scc(C)c1NC(=O)CC12CC3CC(CC(C3)C1)C2`, the figure is 124 °C; as for `CCOc1ccc(Nc2nc3nc[nH]c3c(=O)[nH]2)cn1`, > 350 °C. The compound `OCc1cnn(-c2ccccc2)c1-c1ccccc1` gave a melting point of 147 to 148 °C. As for `CC(=O)OCC[Si](c1ccccc1)(c1ccccc1)c1ccccc1`, the figure is 67 to 68 °C; as for `COc1cncnc1N1CCN(CCCc2c[nH]c3ccc(CN(C)S(C)(=O)=O)cc23)CC1`, 164 to 165 °C. `Cc1ccccc1C(=O)c1ccc(Nc2ccc(Br)cc2NC(=O)OCCl)cc1Cl` showed a melting point of 189 to 190 °C. As for `Cc1cc(C)c2c(c1)NC(C)C2` (stereo unspecified), the figure is 75 °C.

For the compound `CC(C)COc1c(-c2ccc(S(N)(=O)=O)cc2)cnn(-c2cccc(Cl)c2)c1=O`, the melting point was 80 to 85 °C. As to `N#CC(=Cc1cc(O)c(O)c(Cl)c1)C(=O)Nc1cccc(Cl)c1`, the melting point was > 300 °C.

The compound `CC(=O)NCC1CN(c2ccc(N3CCN(c4nnc(C5CC5)s4)CC3)c(F)c2)C(=O)O1` (stereo unspecified) displayed a melting point of 217 to 218 °C.

As to `COc1cc(OC)nc(Oc2cccc3c2C(=O)OC3F)n1` (stereo unspecified), the melting point was 172 to 174 °C. On to `CC(C)CCCC(C)C1CCC2C3CC=C4CC(OCCI)CCC4(C)C3CCC12C` (stereo unspecified), for which the melting point was 86 to 88 °C. Turning to `Cc1cc(O)ccc1NCCc1ccccn1`, the melting point lay in the range of 138 to 140 °C.

The compound `N=C(Cc1ccccc1)NS(=O)(=O)C=Cc1ccc(Cl)c(Cl)c1` came in with a melting point of 151 to 155 °C.

The compound `CCNC(=O)c1c(Cl)cccc1C(C)(C)C` came in with a melting point of 121 to 123 °C.

As to `COCCOCc1c(CN(C)CC(O)c2ncccn2)sc2c(=O)c(C(=O)NCc3ccc(Cl)cc3)cn(C)c12` (stereo unspecified), the melting point lay in the range of 146 to 148 °C. With `COc1cc2ncc(C#N)c(Nc3ccc(F)c(Cl)c3)c2cc1-n1cccc1`, the melting point fell in the range of 192 to 194 °C. As to `Cc1nnc(C(C)C)n1C1CC2CCC(C1)N2CCC(NC(=O)C1CCC(F)(F)CC1)c1ccc(NC(=O)COCC(=O)NCCCCCCCN)cc1` (stereo unspecified), the melting point is 100 to 102 °C.

Compound `Cc1cc(C)c(C(=O)Nc2ccccc2S(C)=O)c(I)c1` (stereo unspecified) yielded a melting point of 114 °C. `Cc1cccc2c1SC1(CCOC1=O)C2=O` (stereo unspecified) had a melting point of 98.5 to 99.5 °C. As for `CCCC(=O)NCCCCn1c(CC)nc2c(N)nc3ccccc3c21`, the melting point lay within 148 to 149 °C. `CS(=O)(=O)On1c(C(F)(F)F)nc2ncc(Cl)cc21` came in with a melting point of 137 °C.

The compound `O=C(O)c1cccc(-n2c(-c3ccccc3)cc3c2-c2ccccc2CC3)c1` registered a melting point of 225 to 228 °C. `COc1ccc2c(c1CNC(=O)OCC1c3ccccc3-c3ccccc31)Oc1c(ccc(OC)c1CC(=O)O)C2(C)C`: the melting point fell in the range of 134 to 136 °C. `O=C(O)C(Cc1ccccc1)Oc1c(Br)cc(-c2ccc(-c3c(Cc4ccccc4)sc4ccccc34)cc2)cc1Br` (stereo unspecified) came in with a melting point of 87 to 89 °C.

For the compound `Nc1cccnc1Nc1ccccc1C(=O)c1ccc(F)cc1`, the melting point was found to be 122 °C. Compound `O=C1NCCN(C(c2ccccc2)(c2ccccc2)c2ccccc2)C1=O` registered a melting point of 230 to 235 °C. Next, `CN1CCN(Cc2ccc3c(c2)Cc2c(-c4ccsc4)n[nH]c2-3)CC1`: 115 to 117 °C. Compound `Cc1cc(=O)n2c3c(cc(C(O)(C(F)(F)F)C(F)(F)F)cc13)OC2` showed a melting point of 262 to 264 °C. As for `CCOc1ccc2c(c1)C(C)(c1cc(CN3CCCC3)ccc1Cl)C(=O)N2S(=O)(=O)c1ccc(C(=O)NC(C)(C)C)cc1OC` (stereo unspecified), the melting point was 132 °C. As for `CC(C)(C)OC(=O)N1CCN(c2cccc3cc(N)cnc23)CC1`, the figure is 168 to 173 °C; as for `Cn1cc(-c2cc3cccnc3[nH]2)c2cc(CCC(=O)O)ccc21`, 268 to 270 °C. As for `Nc1ncnc2c1c(-c1cc(O)cc(F)c1)nn2Cc1oc2cccc(F)c2c(=O)c1-c1cccc(F)c1`, the figure is 136 to 138 °C; as for `O=C(O)c1cc(CCl)cnc1C(=O)O`, 170 to 172 °C. Next, `CC(=O)C(C(C)=O)C(=O)NS(=O)(=O)c1ccc(C)cc1`: 137 to 140 °C; `COc1ccc(Cl)c(CC(Nc2nc3ccc(Cl)cc3cc2C(=O)O)C(=O)O)c1` (stereo unspecified): 180 to 185 °C. Compound `O=C(NCc1ccc2c(c1)-c1[nH]nc(-c3ccsc3)c1C2)c1ccncc1` returned a melting point of 278 to 281 °C. Compound `CCCCc1ncc(/C(C)=C(\Cc2cccs2)C(=O)O)n1Cc1ccc(C#N)cc1` registered a melting point of 210 to 212 °C.

In turn, `Cc1oc(-c2ccccc2)nc1CCOc1ccc(CC(C)(C(=O)O)c2ccccc2)cc1` (stereo unspecified) registered a melting point of 178 to 179 °C. As to `COc1c(C(=O)NC2CN3CCC2CC3)cc(Cl)c2c1CCCN2` (stereo unspecified), the melting point was 105 to 108 °C.

`CNC(=O)NCCN1CCC(=C2c3ccccc3CCn3ccnc32)CC1` showed a melting point of 178 °C. The compound `CC(C)(C)C(=Cc1ccc(Cl)cc1Cl)Cn1cncn1` had a melting point of 78 °C. `COc1cccc(N)c1C#N` registered a melting point of 143 to 146 °C.

Compound `COc1ccc(-c2cc3cc(F)c(F)cc3[nH]2)cc1NCc1ccc([N+](=O)[O-])cc1` yielded a melting point of 181 to 182 °C. In the case of `COC1OCC[C@@H]1NC(=O)[C@H](CC(C)C)NC(=O)[C@H](CC(C)C)NC(=O)[C@H](CC(C)C)NC(=O)OCc1ccccc1` (stereo partly specified), the melting point is 210 to 212 °C. `CC(=O)Nc1ccc2c(c1)-n1cc(C(=O)O)nc1CO2` had a melting point of 295 to 296 °C. `Cc1ccc(-c2ccccc2)cc1CNC(=O)N(C)N` yielded a melting point of 91.6 °C.

In the case of `Cc1cc(C2=C(c3cccc(F)c3)C(=O)C(C)(C)O2)ccc1S(N)(=O)=O`, the melting point fell in the range of 81 to 82 °C.
